Source: patent US20260109707A1, “HETEROBIFUNCTIONAL COMPOUNDS AND METHODS OF TREATING DISEASE” (Halda Therapeutics OpCo. Inc., priority 2022, published 2026)
Like-named read-outs stand apart in the source and are kept apart here.

What was measured:
VCaP cells = assay: Cellular growth inhibition assay for VCaP cells (CellTiter-Glo, 72 hours); format: cell-based, human
In short: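 Luminescent viability signal after 72 h of compound exposure gave GI50 values by four-parameter nonlinear regression. Compounds were added in 0.5% DMSO to cells plated 24 h earlier at 5000/well in DMEM containing 10% FBS.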

[1] = system: T-Rex 293 cell line SC3 cells having increased expression of androgen receptor protein due to exposure to doxycycline; assay: Cellular growth inhibition assay, T-Rex 293 SC3 cells with doxycycline (CellTiter-Glo, 72 hours); format: cell-based; details: T-Rex 293 SC3 cells with increased androgen receptor expression due to doxycycline (10 ng/mL)
In short: (§1)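 Doxycycline (10 ng/mL) was either included or omitted to toggle wild-type androgen receptor expression in SC3 cells, a T-Rex 293 clone, grown in stripped-serum, phenol red-free medium. After 72 hours with compound, viable cells were quantified by CellTiter-Glo 2.0.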

[2] = system: T-Rex 293 cell line SC3 cells lacking increased expression of androgen receptor protein; assay: Cellular growth inhibition assay, T-Rex 293 SC3 cells without doxycycline (CellTiter-Glo, 72 hours); format: cell-based; details: T-Rex 293 cell line SC3 cells not exposed to doxycycline (lacking increased androgen receptor expression)
In short: as §1

Compound: Cc1sc2c(c1C)C(c1ccc(C3CCC4(CCN(c5ccc(C(=O)N[C@H]6CC[C@H](Oc7ccc(C#N)c(Cl)c7)CC6)nn5)CC4)C3)nc1)=NC1(CC1)c1nnc(C)n1-2 (stereo partly drawn) [I-738]
- GI50 (VCaP cells): < 500 nM
- GI50 [1]: < 500 nM
- GI50 [2]: > 3000 nM

Compound: Cc1sc2c(c1C)C(c1ccc(C3CCC4(CCN(c5ccc(C(=O)N[C@H]6CC[C@H](Oc7ccc(C#N)c(Cl)c7)CC6)nn5)CC4)C3)nc1)=NC1(CC1)c1nnc(C)n1-2 (stereo partly drawn) [I-739]
- GI50 (VCaP cells): < 500 nM
- GI50 [1]: < 500 nM
- GI50 [2]: 500 to 1500 nM

Compound: Cc1sc2c(c1C)C(c1ccc(C#CC3CC4(C3)CN(c3ccc(C(=O)N[C@H]5CC[C@H](Oc6ccc(C#N)c(Cl)c6)CC5)nn3)C4)cc1)=NC(C(F)(F)F)c1nnc(C)n1-2 (stereo partly drawn) [I-741]
- GI50 (VCaP cells): < 500 nM
- GI50 [1]: < 500 nM
- GI50 ([2]; 72 h): > 3000 nM

Compound: Cc1sc2c(c1C)C(c1ccc(C3CCC4(CC3)CCN(c3ccc(C(=O)N[C@H]5CC[C@H](Oc6ccc(C#N)c(Cl)c6)CC5)nn3)CC4)nc1)=N[C@@H](C)c1nnc(C)n1-2 [I-744]
- GI50 (VCaP cells): < 500 nM
- GI50 [1]: < 500 nM
- GI50 [2]: 500 to 1500 nM

Compound: Cc1sc2c(c1C)C(c1ccc(N3CCC4(CCN(c5ccc(C(=O)N[C@H]6CC[C@H](Oc7ccc(C#N)c(Cl)c7)CC6)nn5)C4)C3)c(F)c1)=N[C@@H](C)c1nnc(C)n1-2 (stereo partly drawn) [I-745]
- GI50 (VCaP cells; Homo sapiens, VCaP, 72 h): < 500 nM
- GI50 [1]: < 500 nM
- GI50 [2]: < 500 nM

Compound: Cc1sc2c(c1C)C(c1ccc(N3CCC4(CCN(c5ccc(C(=O)N[C@H]6CC[C@H](Oc7ccc(C#N)c(Cl)c7)CC6)nn5)C4)C3)cc1F)=N[C@@H](C)c1nnc(C)n1-2 (stereo partly drawn) [I-746]
- GI50 (VCaP cells; Homo sapiens, VCaP, 72 h): < 500 nM
- GI50 [1]: < 500 nM
- GI50 [2]: 500 to 1500 nM

Compound: Cc1sc2c(c1C)C(c1cccc(OC3CCC4(CC3)CCN(c3ccc(C(=O)N[C@H]5CC[C@H](Oc6ccc(C#N)c(Cl)c6)CC5)nn3)C4)c1)=N[C@@H](C)c1nnc(C)n1-2 (stereo partly drawn) [I-747]
- GI50 (VCaP cells): < 500 nM
- GI50 ([1]; 72 h): < 500 nM
- GI50 [2]: < 500 nM

Compound: Cc1sc2c(c1C)C(c1cccc(OC3CCC4(CCN(c5ccc(C(=O)N[C@H]6CC[C@H](Oc7ccc(C#N)c(Cl)c7)CC6)nn5)C4)C3)c1)=N[C@@H](C)c1nnc(C)n1-2 (stereo partly drawn) [I-748]
- GI50 (VCaP cells; Homo sapiens, VCaP, 72 h): < 500 nM
- GI50 ([1]; 72 h): < 500 nM
- GI50 ([2]; 72 h): < 500 nM

Compound: Cc1sc2c(c1C)C(c1cccc(OC3CCC4(CCN(c5ccc(C(=O)N[C@H]6CC[C@H](Oc7ccc(C#N)c(Cl)c7)CC6)nn5)C4)C3)c1)=N[C@@H](C)c1nnc(C)n1-2 (stereo partly drawn) [I-749]
- GI50 (VCaP cells): < 500 nM
- GI50 [1]: < 500 nM
- GI50 [2]: 500 to 1500 nM

Compound: Cc1sc2c(c1C)C(c1cccc(OC3CCC4(CCN(c5ccc(C(=O)N[C@H]6CC[C@H](Oc7ccc(C#N)c(Cl)c7)CC6)nn5)C4)C3)c1)=N[C@@H](C)c1nnc(C)n1-2 (stereo partly drawn) [I-750]
- GI50 (VCaP cells): < 500 nM
- GI50 [1]: < 500 nM
- GI50 [2]: < 500 nM

Compound: Cc1sc2c(c1C)C(c1ccccc1N1CC3(CCN(c4ccc(C(=O)N[C@H]5CC[C@H](Oc6ccc(C#N)c(Cl)c6)CC5)nn4)CC3)C1)=N[C@@H](C)c1nnc(C)n1-2 [I-751]
- GI50 (VCaP cells; Homo sapiens, VCaP, 72 h): < 500 nM
- GI50 ([1]; 72 h): < 500 nM
- GI50 ([2]; 72 h): < 500 nM

Compound: Cc1sc2c(c1C)C(c1ccccc1OC1CCC3(CC1)CCN(c1ccc(C(=O)N[C@H]4CC[C@H](Oc5ccc(C#N)c(Cl)c5)CC4)nn1)C3)=N[C@@H](C)c1nnc(C)n1-2 (stereo partly drawn) [I-752]
- GI50 (VCaP cells; Homo sapiens, VCaP, 72 h): < 500 nM
- GI50 ([1]; 72 h): < 500 nM
- GI50 ([2]; 72 h): < 500 nM

Compound: Cc1sc2c(c1C)C(c1ccccc1OC1CCC3(CC1)CCN(c1ccc(C(=O)N[C@H]4CC[C@H](Oc5ccc(C#N)c(Cl)c5)CC4)nn1)C3)=N[C@@H](C)c1nnc(C)n1-2 (stereo partly drawn) [I-753]
- GI50 (VCaP cells): < 500 nM
- GI50 [1]: < 500 nM
- GI50 [2]: < 500 nM

Compound: Cc1sc2c(c1C)C(c1ccccc1CC1CC3(CCCN(c4ccc(C(=O)N[C@H]5CC[C@H](Oc6ccc(C#N)c(Cl)c6)CC5)nn4)C3)C1)=N[C@@H](C)c1nnc(C)n1-2 (stereo partly drawn) [I-754]
- GI50 (VCaP cells; Homo sapiens, VCaP, 72 h): > 3000 nM
- GI50 ([1]; 72 h): > 3000 nM
- GI50 ([2]; 72 h): > 3000 nM

Compound: Cc1sc2c(c1C)C(c1ccccc1CC1CC3(CCCN(c4ccc(C(=O)N[C@H]5CC[C@H](Oc6ccc(C#N)c(Cl)c6)CC5)nn4)C3)C1)=N[C@@H](C)c1nnc(C)n1-2 (stereo partly drawn) [I-755]
- GI50 (VCaP cells): 1500 to 3000 nM
- GI50 [1]: > 3000 nM
- GI50 [2]: > 3000 nM

Compound: Cc1sc2c(c1C)C(c1ccc(C3CCC(CC4CCN(c5ccc(C(=O)N[C@H]6CC[C@H](Oc7ccc(C#N)c(Cl)c7)CC6)nn5)CC4)CC3)cc1)=NC1(CC1)c1nnc(C)n1-2 (stereo partly drawn) [I-756]
- GI50 (VCaP cells; Homo sapiens, VCaP, 72 h): < 500 nM
- GI50 ([1]; 72 h): < 500 nM
- GI50 [2]: > 3000 nM

Compound: Cc1sc2c(c1C)C(c1ccc(C3CCC(CC4CCN(c5ccc(C(=O)N[C@H]6CC[C@H](Oc7ccc(C#N)c(Cl)c7)CC6)nn5)CC4)CC3)cc1)=NC1(CC1)c1nnc(C)n1-2 (stereo partly drawn) [I-757]
- GI50 (VCaP cells): < 500 nM
- GI50 [1]: < 500 nM
- GI50 [2]: < 500 nM

Compound: Cc1sc2c(c1C)C(c1ccc(C3CCC4(CCN(c5ccc(C(=O)N[C@H]6CC[C@H](Oc7ccc(C#N)c(Cl)c7)CC6)nn5)CC4)C3)cc1)=NC(C(F)(F)F)c1nnc(C)n1-2 (stereo partly drawn) [I-758]
- GI50 (VCaP cells): > 3000 nM
- GI50 [1]: > 3000 nM
- GI50 [2]: > 3000 nM

Compound: Cc1sc2c(c1C)C(c1ccc(C3CCC4(CCN(c5ccc(C(=O)N[C@H]6CC[C@H](Oc7ccc(C#N)c(Cl)c7)CC6)nn5)CC4)C3)cc1)=NC(C(F)(F)F)c1nnc(C)n1-2 (stereo partly drawn) [I-759]
- GI50 (VCaP cells; Homo sapiens, VCaP, 72 h): < 500 nM
- GI50 [1]: > 3000 nM
- GI50 ([2]; 72 h): > 3000 nM

Compound: Cc1sc2c(c1C)C(c1ccc(C3CCC4(CCN(c5ccc(C(=O)N[C@H]6CC[C@H](Oc7ccc(C#N)c(Cl)c7)CC6)nn5)CC4)C3)cc1)=NC(C(F)(F)F)c1nnc(C)n1-2 (stereo partly drawn) [I-760]
- GI50 (VCaP cells): < 500 nM
- GI50 [1]: < 500 nM
- GI50 [2]: > 3000 nM

Compound: Cc1sc2c(c1C)C(c1ccc(C3CCC4(CCN(c5ccc(C(=O)N[C@H]6CC[C@H](Oc7ccc(C#N)c(Cl)c7)CC6)nn5)CC4)C3)cc1)=NC(C(F)(F)F)c1nnc(C)n1-2 (stereo partly drawn) [I-761]
- GI50 (VCaP cells): < 500 nM
- GI50 [1]: > 3000 nM
- GI50 [2]: > 3000 nM

Compound: Cc1sc2c(c1C)C(c1ccc(C3CCC(CC4CCN(c5ccc(C(=O)N[C@H]6CC[C@H](Oc7ccc(C#N)c(Cl)c7)CC6)nn5)CC4)CC3)cc1)=N[C@@H](C)c1nnc(C)n1-2 (stereo partly drawn) [I-764]
- GI50 (VCaP cells; Homo sapiens, VCaP, 72 h): < 500 nM
- GI50 ([1]; 72 h): < 500 nM
- GI50 ([2]; 72 h): > 3000 nM

Compound: Cc1sc2c(c1C)C(c1ccc(C3CCC(CC4CCN(c5ccc(C(=O)N[C@H]6CC[C@H](Oc7ccc(C#N)c(Cl)c7)CC6)nn5)CC4)CC3)cc1)=N[C@@H](C)c1nnc(C)n1-2 (stereo partly drawn) [I-765]
- GI50 (VCaP cells): < 500 nM
- GI50 [1]: < 500 nM
- GI50 [2]: > 3000 nM

Compound: Cc1sc2c(c1C)C(c1ccc(N3CC45CCCCC4(C3)CN(c3ccc(C(=O)N[C@H]4CC[C@H](Oc6ccc(C#N)c(Cl)c6)CC4)nn3)C5)cc1)=N[C@@H](C)c1nnc(C)n1-2 (stereo partly drawn) [I-766]
- GI50 (VCaP cells; Homo sapiens, VCaP, 72 h): < 500 nM
- GI50 ([1]; 72 h): < 500 nM
- GI50 ([2]; 72 h): > 3000 nM

Compound: Cc1sc2c(c1C)C(c1ccc(N3CCC4(CC3)CCN(c3ccc(C(=O)N[C@H]5CC[C@H](Oc6ccc(C#N)c(Cl)c6)CC5)nn3)C4)cc1F)=N[C@@H](C)c1nnc(C)n1-2 [I-767]
- GI50 (VCaP cells): < 500 nM
- GI50 [1]: < 500 nM
- GI50 [2]: < 500 nM

Compound: Cc1sc2c(c1C)C(c1ccc(CC3CC4(CCCN(c5ccc(C(=O)N[C@H]6CC[C@H](Oc7ccc(C#N)c(Cl)c7)CC6)nn5)C4)C3)cn1)=NC(Cc1ncco1)c1nnc(C)n1-2 (stereo partly drawn) [I-768]
- GI50 (VCaP cells; Homo sapiens, VCaP, 72 h): < 500 nM
- GI50 [1]: < 500 nM
- GI50 [2]: > 3000 nM

Compound: Cc1sc2c(c1C)C(c1ccc(CC3CC4(CCCN(c5ccc(C(=O)N[C@H]6CC[C@H](Oc7ccc(C#N)c(Cl)c7)CC6)nn5)C4)C3)cn1)=NC(Cc1ncco1)c1nnc(C)n1-2 (stereo partly drawn) [I-769]
- GI50 (VCaP cells): < 500 nM
- GI50 [1]: > 3000 nM
- GI50 [2]: > 3000 nM

Compound: Cc1sc2c(c1C)C(c1ccc(CC3CC4(CCCN(c5ccc(C(=O)N[C@H]6CC[C@H](Oc7ccc(C#N)c(Cl)c7)CC6)nn5)C4)C3)cn1)=NC(Cc1ncco1)c1nnc(C)n1-2 (stereo partly drawn) [I-770]
- GI50 (VCaP cells): < 500 nM
- GI50 [1]: < 500 nM
- GI50 [2]: < 500 nM

Compound: Cc1sc2c(c1C)C(c1ccc(CC3CC4(CCCN(c5ccc(C(=O)N[C@H]6CC[C@H](Oc7ccc(C#N)c(Cl)c7)CC6)nn5)C4)C3)cn1)=NC(Cc1ncco1)c1nnc(C)n1-2 (stereo partly drawn) [I-771]
- GI50 (VCaP cells): < 500 nM
- GI50 [1]: < 500 nM
- GI50 [2]: < 500 nM

Compound: Cc1sc2c(c1C)C(c1ccc(N3CC(C4CCC(Cc5ccc(C(=O)N[C@H]6CC[C@H](Oc7ccc(C#N)c(Cl)c7)CC6)nn5)CC4)C3)cc1)=N[C@@H](Cc1ncco1)c1nnc(C)n1-2 (stereo partly drawn) [I-772]
- GI50 (VCaP cells; Homo sapiens, VCaP, 72 h): < 500 nM
- GI50 ([1]; 72 h): < 500 nM
- GI50 ([2]; 72 h): 500 to 1500 nM

Compound: Cc1sc2c(c1C)C(c1ccc(NCC3(F)CCN(c4ncc(C(=O)N[C@H]5CC[C@H](Oc6ccc(C#N)c(Cl)c6)CC5)cn4)CC3)cc1)=NC(Cc1ncco1)c1nnc(C)n1-2 (stereo partly drawn) [I-784]
- GI50 (VCaP cells; Homo sapiens, VCaP, 72 h): < 500 nM
- GI50 ([1]; 72 h): < 500 nM
- GI50 ([2]; 72 h): < 500 nM
